Assay results: PubChem BioAssay (NCI)
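Abbreviation: GI50, concentration required for 50% inhibition of growth. TGI marks complete inhibition of growth.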

Assays:
Assay in all cases: growth of human tumour cells (NCI), 384-well format
786-0 renal = tested on: 786-0 renal
A498 renal = tested on: A498 renal
A549 NSCLC = tested on: A549 NSCLC
ACHN renal = tested on: ACHN renal
BT-549 breast = tested on: BT-549 breast
CAKI-1 renal = tested on: CAKI-1 renal
CCRF-CEM leukemia = tested on: CCRF-CEM leukemia
DU-145 prostate = tested on: DU-145 prostate
EKVX NSCLC = tested on: EKVX NSCLC
HCT-116 colon = tested on: HCT-116 colon
HCT-15 colon = tested on: HCT-15 colon
HL-60(TB) leukemia = tested on: HL-60(TB) leukemia
HOP-62 NSCLC = tested on: HOP-62 NSCLC
HOP-92 NSCLC = tested on: HOP-92 NSCLC
HS 578T breast = tested on: HS 578T breast
HT29 colon = tested on: HT29 colon
IGROV1 ovarian = tested on: IGROV1 ovarian
K-562 leukemia = tested on: K-562 leukemia
KM12 colon = tested on: KM12 colon
M14 melanoma = tested on: M14 melanoma
MALME-3M melanoma = tested on: MALME-3M melanoma
MCF7 breast = tested on: MCF7 breast
MDA-MB-231 breast = tested on: MDA-MB-231 breast
MDA-MB-435 melanoma = tested on: MDA-MB-435 melanoma
MDA-MB-468 breast = tested on: MDA-MB-468 breast
NCI-H226 lung = tested on: NCI-H226 lung
NCI-H23 lung = tested on: NCI-H23 lung
NCI-H322M lung = tested on: NCI-H322M lung
NCI-H522 lung = tested on: NCI-H522 lung
NCI/ADR-RES ovarian = tested on: NCI/ADR-RES ovarian
OVCAR-3 ovarian = tested on: OVCAR-3 ovarian
OVCAR-4 ovarian = tested on: OVCAR-4 ovarian
OVCAR-5 ovarian = tested on: OVCAR-5 ovarian
OVCAR-8 ovarian = tested on: OVCAR-8 ovarian
PC-3 prostate = tested on: PC-3 prostate
RPMI-8226 leukemia = tested on: RPMI-8226 leukemia
SF-268 CNS = tested on: SF-268 CNS
SF-295 CNS = tested on: SF-295 CNS
SF-539 CNS = tested on: SF-539 CNS
SK-MEL-2 melanoma = tested on: SK-MEL-2 melanoma
SK-MEL-28 melanoma = tested on: SK-MEL-28 melanoma
SK-OV-3 ovarian = tested on: SK-OV-3 ovarian
SN12C renal = tested on: SN12C renal
SNB-19 CNS = tested on: SNB-19 CNS
SNB-75 CNS = tested on: SNB-75 CNS
SW-620 colon = tested on: SW-620 colon
T-47D breast = tested on: T-47D breast
TK-10 renal = tested on: TK-10 renal
U251 glioblastoma = tested on: U251 glioblastoma
UACC-257 melanoma = tested on: UACC-257 melanoma
UACC-62 melanoma = tested on: UACC-62 melanoma
UO-31 renal = tested on: UO-31 renal

Question: CC[C@]1(O)C[C@H]2CN(CCc3c([nH]c4ccccc34)[C@@](C(=O)OC)(c3cc4c(cc3OC)N(C)[C@H]3[C@@](O)(C(=O)OC)[C@H](OC(C)=O)[C@]5(CC)C=CCN6CC[C@]43[C@@H]65)C2)C1 was tested. Which GI50 ([…]-0 renal) did it give?
Answer: Its GI50 is less than 19.1 nM.

Question: And the TGI (786-0 renal)?
Answer: Its TGI is 4130 nM.

Question: And the GI50 (A498 renal)?
Answer: The GI50 was less than 19.9 nM.

Question: And the GI50 (A549 NSCLC)?
Answer: Its GI50 is less than 21.2 nM.

Question: And the TGI (A549 NSCLC)?
Answer: The TGI was 14100 nM.

Question: And the TGI (ACHN renal)?
Answer: The TGI was 6080 nM.

Question: And the GI50 (BT-549 breast)?
Answer: The GI50 was less than 16.2 nM.

Question: And the TGI (BT-549 breast)?
Answer: The TGI was 42.6 nM.

Question: What about the GI50 (CAKI-1 renal) of the same compound?
Answer: Its GI50 is less than 22.6 nM.

Question: And the TGI (CAKI-1 renal)?
Answer: The TGI was 3880 nM.

Question: And the GI50 (CCRF-CEM leukemia)?
Answer: The GI50 was less than 13.6 nM.

Question: What about the TGI (CCRF-CEM leukemia) of the same compound?
Answer: Its TGI is less than 18.2 nM.

Question: And the GI50 (DU-145 prostate)?
Answer: The GI50 was less than 18.7 nM.

Question: What about the GI50 (EKVX NSCLC) of the same compound?
Answer: Its GI50 is 30.4 nM.

Question: What about the TGI (EKVX NSCLC) of the same compound?
Answer: Its TGI is 11900 nM.

Question: What about the GI50 (HCT-116 colon) of the same compound?
Answer: Its GI50 is less than 17.8 nM.

Question: What about the TGI (HCT-116 colon) of the same compound?
Answer: Its TGI is 595 nM.

Question: What about the GI50 (HCT-15 colon) of the same compound?
Answer: The GI50 was 52 nM.

Question: What about the TGI (HCT-15 colon) of the same compound?
Answer: Its TGI is 10400 nM.

Question: And the TGI (HL-60(TB) leukemia)?
Answer: Its TGI is less than 11.1 nM.

Question: And the GI50 (HOP-62 NSCLC)?
Answer: The GI50 was less than 17.5 nM.

Question: What about the TGI (HOP-62 NSCLC) of the same compound?
Answer: Its TGI is 1250 nM.

Question: What about the GI50 (HOP-92 NSCLC) of the same compound?
Answer: The GI50 was 66.4 nM.

Question: What about the TGI (HOP-92 NSCLC) of the same compound?
Answer: The TGI was 8390 nM.

Question: And the GI50 (HS 578T breast)?
Answer: The GI50 was less than 13.6 nM.

Question: And the TGI (HS 578T breast)?
Answer: The TGI was less than 20.8 nM.

Question: And the GI50 (HT29 colon)?
Answer: The GI50 was 31.5 nM.

Question: What about the TGI (HT29 colon) of the same compound?
Answer: Its TGI is 10700 nM.

Question: And the GI50 (IGROV1 ovarian)?
Answer: The GI50 was less than 39 nM.

Question: What about the TGI (IGROV1 ovarian) of the same compound?
Answer: The TGI was 4400 nM.

Question: And the TGI (K-562 leukemia)?
Answer: Its TGI is less than 18.8 nM.

Question: And the GI50 (KM12 colon)?
Answer: The GI50 was 33.1 nM.

Question: What about the TGI (KM12 colon) of the same compound?
Answer: The TGI was 13800 nM.

Question: And the GI50 (M14 melanoma)?
Answer: The GI50 was 22.7 nM.

Question: And the TGI (M14 melanoma)?
Answer: Its TGI is 13200 nM.

Question: What about the GI50 (MALME-3M melanoma) of the same compound?
Answer: The GI50 was less than 23.8 nM.

Question: What about the TGI (MALME-3M melanoma) of the same compound?
Answer: The TGI was 16400 nM.

Question: What about the GI50 (MCF7 breast) of the same compound?
Answer: The GI50 was less than 19.1 nM.

Question: What about the TGI (MCF7 breast) of the same compound?
Answer: The TGI was 3170 nM.

Question: And the GI50 (MDA-MB-231 breast)?
Answer: The GI50 was less than 20.5 nM.

Question: What about the TGI (MDA-MB-231 breast) of the same compound?
Answer: The TGI was 8400 nM.

Question: And the GI50 (MDA-MB-435 melanoma)?
Answer: Its GI50 is less than 13.7 nM.

Question: What about the TGI (MDA-MB-435 melanoma) of the same compound?
Answer: The TGI was less than 21.1 nM.

Question: And the GI50 (MDA-MB-468 breast)?
Answer: Its GI50 is less than 14.9 nM.

Question: What about the TGI (MDA-MB-468 breast) of the same compound?
Answer: Its TGI is less than 20.7 nM.

Question: What about the GI50 (NCI-H226 lung) of the same compound?
Answer: Its GI50 is less than 26.3 nM.

Question: And the TGI (NCI-H226 lung)?
Answer: Its TGI is 13000 nM.

Question: What about the GI50 (NCI-H23 lung) of the same compound?
Answer: The GI50 was 25.8 nM.

Question: What about the TGI (NCI-H23 lung) of the same compound?
Answer: The TGI was 79.6 nM.

Question: What about the GI50 (NCI-H322M lung) of the same compound?
Answer: The GI50 was less than 24.5 nM.

Question: What about the TGI (NCI-H322M lung) of the same compound?
Answer: Its TGI is 20300 nM.

Question: And the GI50 (NCI-H522 lung)?
Answer: The GI50 was less than 14.1 nM.

Question: And the TGI (NCI-H522 lung)?
Answer: Its TGI is less than 19.6 nM.

Question: And the GI50 (NCI/ADR-RES ovarian)?
Answer: The GI50 was 454 nM.

Question: What about the TGI (NCI/ADR-RES ovarian) of the same compound?
Answer: The TGI was 1020 nM.

Question: What about the GI50 (OVCAR-3 ovarian) of the same compound?
Answer: Its GI50 is less than 15.1 nM.

Question: And the TGI (OVCAR-3 ovarian)?
Answer: Its TGI is less than 26.5 nM.

Question: What about the GI50 (OVCAR-4 ovarian) of the same compound?
Answer: Its GI50 is 357 nM.

Question: What about the TGI (OVCAR-4 ovarian) of the same compound?
Answer: The TGI was 14700 nM.

Question: And the GI50 (OVCAR-5 ovarian)?
Answer: Its GI50 is less than 21.1 nM.

Question: What about the TGI (OVCAR-5 ovarian) of the same compound?
Answer: Its TGI is 16800 nM.

Question: And the GI50 (OVCAR-8 ovarian)?
Answer: The GI50 was less than 16.4 nM.

Question: What about the TGI (OVCAR-8 ovarian) of the same compound?
Answer: The TGI was less than 28.4 nM.

Question: And the GI50 (PC-3 prostate)?
Answer: Its GI50 is less than 19.5 nM.

Question: And the TGI (PC-3 prostate)?
Answer: The TGI was 11800 nM.

Question: What about the GI50 (RPMI-8226 leukemia) of the same compound?
Answer: The GI50 was less than 11.6 nM.

Question: And the TGI (RPMI-8226 leukemia)?
Answer: Its TGI is less than 16.8 nM.

Question: What about the GI50 (SF-268 CNS) of the same compound?
Answer: The GI50 was less than 20.3 nM.

Question: What about the TGI (SF-268 CNS) of the same compound?
Answer: Its TGI is 4860 nM.

Question: And the GI50 (SF-295 CNS)?
Answer: The GI50 was less than 14.8 nM.

Question: What about the TGI (SF-295 CNS) of the same compound?
Answer: Its TGI is less than 22.6 nM.

Question: And the GI50 (SF-539 CNS)?
Answer: The GI50 was less than 14.3 nM.

Question: What about the TGI (SF-539 CNS) of the same compound?
Answer: The TGI was less than 21.5 nM.

Question: What about the GI50 (SK-MEL-2 melanoma) of the same compound?
Answer: Its GI50 is less than 16.2 nM.

Question: And the TGI (SK-MEL-2 melanoma)?
Answer: Its TGI is less than 25.4 nM.

Question: And the GI50 (SK-MEL-28 melanoma)?
Answer: Its GI50 is less than 39 nM.

Question: What about the TGI (SK-MEL-28 melanoma) of the same compound?
Answer: The TGI was 14600 nM.

Question: And the GI50 (SK-OV-3 ovarian)?
Answer: The GI50 was less than 20.6 nM.

Question: And the TGI (SK-OV-3 ovarian)?
Answer: The TGI was 904 nM.

Question: And the GI50 (SN12C renal)?
Answer: Its GI50 is less than 25 nM.

Question: And the TGI (SN12C renal)?
Answer: The TGI was 14700 nM.

Question: And the GI50 (SNB-19 CNS)?
Answer: The GI50 was less than 21.6 nM.

Question: And the TGI (SNB-19 CNS)?
Answer: Its TGI is 2300 nM.

Question: And the GI50 (SNB-75 CNS)?
Answer: Its GI50 is less than 20.6 nM.

Question: What about the GI50 (SW-620 colon) of the same compound?
Answer: Its GI50 is less than 20.2 nM.

Question: And the TGI (SW-620 colon)?
Answer: Its TGI is 16300 nM.

Question: And the GI50 (T-47D breast)?
Answer: The GI50 was 544 nM.

Question: And the TGI (T-47D breast)?
Answer: The TGI was 19900 nM.

Question: What about the GI50 (TK-10 renal) of the same compound?
Answer: Its GI50 is less than 26.9 nM.

Question: And the TGI (TK-10 renal)?
Answer: Its TGI is 14600 nM.

Question: And the GI50 (U251 glioblastoma)?
Answer: Its GI50 is less than 17.7 nM.

Question: And the GI50 (UACC-257 melanoma)?
Answer: The GI50 was 412 nM.

Question: And the TGI (UACC-257 melanoma)?
Answer: Its TGI is 10600 nM.

Question: What about the GI50 (UACC-62 melanoma) of the same compound?
Answer: Its GI50 is less than 17.1 nM.

Question: And the GI50 (UO-31 renal)?
Answer: Its GI50 is 157 nM.

Question: And the TGI (UO-31 renal)?
Answer: Its TGI is 7780 nM.
